Experimental data published in PubChem BioAssay AID330 (DTP/NCI, 2004).
“And” between values parts separate entries of the source, which are not always exact repeats. Equal entries are not always repeated. Inconclusive results and toxic doses are left out. The calls were made as follows: active = survival T/C of 150% or more; inactive = T/C below 125% in these data.

Tested on: P388 leukemia ip, CD2F1 mice, survival T/C
Assay: NCI In Vivo Anticancer Drug Screen. Data for tumor model P388 Leukemia (intraperitoneal) in CD2F1 (CDF1) mice
Conditions: endpoint: median survival time, higher = longer survival
Outline: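 Mice carrying the transplanted tumor received test compound or vehicle. Survival was recorded in each group, and the value is the treated-group measurement divided by that of the vehicle-treated control group.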

[1] = dose: 100.0 mg/kg/injection, schedule: Q01DX009 (ip), vehicle: saline with Tween-80
[2] = dose: 200.0 mg/kg/injection, schedule: Q01DX009 (ip), vehicle: saline with Tween-80
[3] = dose: 400.0 mg/kg/injection, schedule: Q01DX009 (ip), vehicle: saline with Tween-80
[4] = dose: 60.0 mg/kg/injection, schedule: Q01DX005 (ip), vehicle: saline with Tween-80
[5] = dose: 120.0 mg/kg/injection, schedule: Q01DX005 (ip), vehicle: saline with Tween-80
[6] = dose: 240.0 mg/kg/injection, schedule: Q01DX005 (ip), vehicle: saline with Tween-80
[7] = dose: 50.0 mg/kg/injection, schedule: Q01DX009 (ip), vehicle: saline with Tween-80
[8] = dose: 50.0 mg/kg/injection, schedule: Q01DX005 (ip), vehicle: Klucel (hydroxypropylcellulose) (HPC)
[9] = dose: 100.0 mg/kg/injection, schedule: Q01DX005 (ip), vehicle: Klucel (hydroxypropylcellulose) (HPC)
[10] = dose: 200.0 mg/kg/injection, schedule: Q01DX005 (ip), vehicle: Klucel (hydroxypropylcellulose) (HPC)

Measured: T/C

CN(C)C(=O)c1cccc(COc2ccc(N)cc2Cl)c1
inactive: [1] 95 % of control | [2] 90 % of control | [3] 95 % of control

CCCCCCC(C(=O)OCC)P(=O)(OCC)OCC (configuration not stated)
inactive: dose: 18.75 mg/kg/injection, schedule: Q01DX009 (ip), vehicle: saline sonified 90 % of control | dose: 37.5 mg/kg/injection, schedule: Q01DX009 (ip), vehicle: saline sonified 95 % of control | dose: 75.0 mg/kg/injection, schedule: Q01DX009 (ip), vehicle: saline sonified 100 % of control

O=C(CCCc1ccc(N2C(=O)C=CC2=O)cc1)ON1C(=O)CCC1=O
inactive: dose: 12.5 mg/kg/injection, schedule: Q04DX002 (ip), vehicle: saline with Tween-80 105 % of control | dose: 25.0 mg/kg/injection, schedule: Q04DX002 (ip), vehicle: saline with Tween-80 104 % of control

CCOC(=O)c1cnc2cc3c(cc2c1Nc1ccccc1)OCO3
inactive: dose: 60.0 mg/kg/injection, schedule: Q01DX005 (ip), vehicle: Klucel (hydroxypropylcellulose) (HPC) 94 % of control | dose: 120.0 mg/kg/injection, schedule: Q01DX005 (ip), vehicle: Klucel (hydroxypropylcellulose) (HPC) 99 % of control | dose: 240.0 mg/kg/injection, schedule: Q01DX005 (ip), vehicle: Klucel (hydroxypropylcellulose) (HPC) 95 % of control

CC(=O)OCCOCn1cc(C)[n+]([O-])nc1=O
inactive: [4] 100 % of control | [5] 94 % of control | [6] 95 % of control

CN(C)C(=O)Oc1ccc(Br)cc1
inactive: [7] 101 % of control | [1] 94 % of control | [2] 103 % of control

Nc1nnc(CCC(=O)Nc2cc(Cl)c(Cl)cc2Cl)n1N
inactive: [4] 108 % of control | [5] 111 % of control | [6] 121 % of control

CC=O
inactive: dose: 0.5 % in 0.5 ml injection vol, schedule: Q01DX009 (ip), vehicle: water 100 % of control and 103 % of control and 109 % of control | dose: 1.0 % in 0.5 ml injection vol, schedule: Q01DX009 (ip), vehicle: water 104 % of control and 112 % of control | dose: 2.0 % in 0.5 ml injection vol, schedule: Q01DX009 (ip), vehicle: water 117 % of control

COc1ccc2c(c1)N(S(=O)(=O)c1ccc(C)cc1)C/C(=C\N1CCN(C)CC1)C2=O
inactive: [8] 97 % of control | [9] 108 % of control | [10] 101 % of control

ONC1=Nc2ccccc2OCCOc2ccccc2N=C1NO
inactive: [8] 100 % of control | [9] 100 % of control | [10] 96 % of control

COC1=CC(=O)OC1n1ccc(OC)nc1=O (configuration not stated)
inactive: [8] 100 % of control | [9] 95 % of control | [10] 95 % of control

O=c1[nH]c2ccccc2nc1Cl
inactive: dose: 25.0 mg/kg/injection, schedule: Q01DX009 (ip), vehicle: saline with Tween-80 100 % of control | [7] 98 % of control | [1] 97 % of control

C=CCOC(N)=O
inactive: [1] 100 % of control | [2] 101 % of control | [3] 101 % of control

CC(=O)OCCn1c2ccccc2nc2cc3c(cc21)c(Cl)c(=O)c1ccccc13
inactive: dose: 50.0 mg/kg/injection, schedule: Q04DX003 (ip), vehicle: saline with Tween-80 96 % of control | dose: 100.0 mg/kg/injection, schedule: Q04DX003 (ip), vehicle: saline with Tween-80 100 % of control | dose: 200.0 mg/kg/injection, schedule: Q04DX003 (ip), vehicle: saline with Tween-80 100 % of control

CC(NC(=O)C(NC(=O)OCc1ccccc1)C(C)O)C(=O)OCc1ccccc1 (configuration not stated)
inactive: dose: 50.0 mg/kg/injection, schedule: Q01DX005 (ip), vehicle: saline with Tween-80 101 % of control | dose: 100.0 mg/kg/injection, schedule: Q01DX005 (ip), vehicle: saline with Tween-80 92 % of control | dose: 200.0 mg/kg/injection, schedule: Q01DX005 (ip), vehicle: saline with Tween-80 100 % of control

O=S(c1ccccc1)c1c(Cl)c(Cl)nc(Cl)c1Cl (configuration not stated)
inactive: dose: 22.0 mg/kg/injection, schedule: Q01DX009 (ip), vehicle: saline with Tween-80 100 % of control and 113 % of control | dose: 33.0 mg/kg/injection, schedule: Q01DX009 (ip), vehicle: saline with Tween-80 109 % of control

O=C(N=[N+]([O-])c1ccccc1)c1ccccc1
inactive: dose: 3.12 mg/kg/injection, schedule: Q01DX001 (ip), vehicle: saline with Tween-80 107 % of control | dose: 6.25 mg/kg/injection, schedule: Q01DX001 (ip), vehicle: saline with Tween-80 110 % of control | dose: 6.25 mg/kg/injection, schedule: Q04DX003 (ip), vehicle: saline with Tween-80 109 % of control and 118 % of control | dose: 12.5 mg/kg/injection, schedule: Q01DX001 (ip), vehicle: saline with Tween-80 99 % of control | dose: 12.5 mg/kg/injection, schedule: Q04DX003 (ip), vehicle: saline with Tween-80 114 % of control and 117 % of control | dose: 25.0 mg/kg/injection, schedule: Q04DX003 (ip), vehicle: saline with Tween-80 89 % of control and 95 % of control
